Values of other authors as cited in patent US20080124416A1 (RENAISSANCE HERBS, INC., priority 2006, published 2008).

Key:
[1] = test system: hepatic fibrosis; conditions: 12.5 or 25 mg/kg p.o.
[2] = test system: human lens epithelial (HLE) cells; conditions: in vitro
[3] = in vitro
[4] = in vivo
[5] = test system: cultured bone cells from the femoral tissues; conditions: micromole amounts
[6] = test system: mouse marrow cultures
[7] = test system: diabetes (streptozotocin-induced); conditions: oral, 50 or 100 μg/kg/day for 14 days
[8] = test system: osteoblastic MC3T3-E1 cells
[9] = test system: rat cortical and trabecular bone tissues

CC1=C(/C=C/C(C)=C/C=C/C(C)=C/C=C/C=C(C)/C=C/C=C(C)/C=C/C2=C(C)C[C@@H](O)CC2(C)C)C(C)(C)C[C@H](O)C1 [zeaxanthin]
TBARS, collagen deposition, 4-hydroxyproline levels, serum ALP and AST [1]: significantly decreased | activities of glutathione-S-transferase and glutathione [1]: significantly increased | UVB light-induced lipid peroxidation [2]: inhibits | antioxidative activity against A2-PE, a pro-oxidant protein in retinal pigment cells [3]: antioxidative activity

CCCCCCCCCCCCCCCC(=O)O[C@@H]1CC(C)=C(/C=C/C(C)=C/C=C/C(C)=C/C=C/C=C(C)/C=C/C=C(C)/C=C/C2=C(C)CCCC2(C)C)C(C)(C)C1 [β-Cryptoxanthinpalmitate]
human bioavailability of esterified vs free form [4]: comparable

CC1=C(/C=C/C(C)=C/C=C/C(C)=C/C=C/C=C(C)/C=C/C=C(C)/C=C/C2=C(C)C[C@@H](O)CC2(C)C)C(C)(C)CCC1 [β-cryptoxanthin]
alkaline phosphatase activity and calcium content [5]: significantly increases | osteoblast-like cell formation induced by bone-resorbing factors [6]: potently inhibits | symptoms of diabetes (serum glucose, triglycerides, calcium, body weight, bone loss) [7]: significantly attenuate | transcriptional activity, proliferation, cell differentiation and mineralization [8]: stimulates | decrease in calcium content induced by prostaglandin E2 and parathyroid hormone [9]: completely inhibits
